# Experiments:
# [1] = Incorporation of [19F]FAA into brain lipids of unanesthetized mice (GC/MS, in vivo kinetic infusion model); parameters: species or system C57BL/6J male mice
# Description: (§1) The plasma and brain kinetics of the purified [^19F]FAA were tested in unanesthetized adult C57BL/6J male mice. The study was conducted following the National Institutes of Health Guidelines for the Care and Use of Laboratory Animals (Publication no. 80-23) and was approved by the Animal Care and Use Committee of the Eunice Kennedy Shriver National Institute of Child Health and Human Development. Male C57BL/6J mice were obtained at the age of 2-3 months. The mice were maintained in an animal facility in which temperature, humidity, and light cycle were regulated with free access to water and a fixed diet (Rodent NIH-07) that contained (as fractional percent of total fatty acids), 30.6% saturated, 22.5% monounsaturated, […], 4.9% α-linolenic, 0.2% AA, 1.6% eicosapentaenoic, and 2.2% docosahexaenoic acid.
# At 4-5 months of age, a mouse was anesthetized with […], and polyethylene catheters were inserted into the femoral artery and vein. The mouse was allowed to recover from surgery in an environment maintained at 25° C., with its hindquarters loosely wrapped and taped to a wooden block. During recovery, body temperature was maintained at 37° C. by means of a rectal probe and a heating element (Indicating Temperature Controller; Yellow Springs Instrument). After 3 h of recovery, the unanesthetized mouse was infused intravenously for 5 min with 130 μl HEPES buffer (pH 7.4) containing 50 mg/ml fatty acid-free bovine serum albumin (BSA, Sigma), or 0.1 mg or 0.5 mg 20-fluoroarachidonic acid (20-FAA) dissolved in HEPES-BSA at a rate of 0.0223 (1+e^−0.32t) ml/min (t in seconds), using a computer-controlled variable rate infusion pump (No. 22; Harvard Apparatus). During infusion, timed arterial blood samples (˜20 μl) were collected in polyethylene-heparin lithium fluoride-coated Beckman centrifuge tubes at 0, 0.25, 0.5, 1.0, 1.5, 3.0, and 4.0 min, and 150 μl was collected at 4.9 min. Plasma samples were separated by centrifuging at 13,000 rpm for 1 min, and stored at −80° C. until they were analyzed. At 5 min, the mouse was anesthetized with sodium pentobarbital (50 mg/kg, i.v.) and subjected to head-focused microwave irradiation (5.5 kW, 0.9 s, 75% power output; Cober Electronics) to stop brain fatty acid metabolism (27). The brain was excised, dissected sagittally and stored at −80° C. until analysis.
# Total lipids were extracted from plasma (7-10 μl) and from half brain (˜0.2 g) by the method of Folch et al (28). Heptadecanoic acid (17:0) was added as an internal standard to plasma prior to extraction. Total lipid extracts were separated by thin layer chromatography (TLC) on silica gel plates (Silica Gel 60A TLC plates; Whatman) that were pre-washed with chloroform/methanol (2:1 v/v) and activated by heating at 100° C. Neutral lipid subclasses including phospholipids (PLs), unesterified fatty acids (UFAs), triglycerides (TGs) and cholesteryl esters (CEs) were separated using a mixture of heptane:diethyl ether:glacial acetic acid (60:40:3 by volume) (29), and authentic PL, cholesterol, UFA, TG and CE standards were run in separate lanes to identify the bands. Phospholipid classes (EtnGpl, ethanolamine glycerophospholipid; ChoGpl, choline glycerophospholipid; PtdIns, phosphatidylinositol; PtdSer, phosphatidylserine) were separated in chloroform:methanol:H2O:glacial acetic acid (60:50:4:1 by volume) (30) and identified with authentic standards in separate lanes. The plates were sprayed with 0.03% (w/v) 6-p-toluidine-2-naphthalene sulfonic acid (Acros) in 50 mM Tris-HCl buffer (pH 7.4), and the lipid bands were visualized under UV light. Each band was scraped into tubes containing di-17:0 PC for quantifying PL, CE, TG, EtnGpl, ChoGpl, PtdIns and PtdSer lipid fractions, or 17:0 heptadecaenoic acid to quantify brain UFAs. Toluene (0.2 ml) was added to each tube. The UFAs were extracted from the scraped silica using 2:1 chloroform/methanol and 1.5 ml of 0.1 M KCl, dried and derivitized as described below. […]
# [2] = Plasma kinetics of FAA during 5-min intravenous infusion in unanesthetized mice; assay type: in vivo, C57BL/6J male mice; conditions: 5-minute intravenous infusion; for plasma area under the curve: mice
# Description: as §1
# At 4-5 months of age, a mouse was anesthetized with […], and polyethylene catheters were inserted into the femoral artery and vein. The mouse was allowed to recover from surgery in an environment maintained at 25° C., with its hindquarters loosely wrapped and taped to a wooden block. During recovery, body temperature was maintained at 37° C. by means of a rectal probe and a heating element (Indicating Temperature Controller; Yellow Springs Instrument). […] Plasma samples were separated by centrifuging at 13,000 rpm for 1 min, and stored at −80° C. until they were analyzed. […]
# Total lipids were extracted from plasma (7-10 μl) and from half brain (˜0.2 g) by the method of Folch et al (28). […] Each band was scraped into tubes containing di-17:0 PC for quantifying PL, CE, TG, EtnGpl, ChoGpl, PtdIns and PtdSer lipid fractions, or 17:0 heptadecaenoic acid to quantify brain UFAs. […]
# [3] = mouse, intravenously injected, from ref (2); cited from earlier work
# [4] = mouse brain, 5-min i.v. infusion, mean±SD, n=3
Structure (SMILES),"FAA concentration within brain phospholipids (rank order) ([1]; both doses, end of 5-min infusion, FIG. 2-A)","FAA detected in brain unesterified fatty acid, triglyceride and cholesteryl ester fractions ([1]; end of 5-min infusion, mouse brain) [nmol/g]","incorporation coefficient k*, high versus low dose ([1]; mouse brain lipids, FIG. 3)","k* values, brain ChoGpl [1, 4] [ml/s/g × 10^4]","k* values, brain EtnGpl [1, 4] [ml/s/g × 10^4]","k* values, brain PtdIns [1, 4] [ml/s/g × 10^4]","k* values, brain PtdSer [1, 4] [ml/s/g × 10^4]","k* values, brain Total lipid [1, 4] [ml/s/g × 10^4]","distribution of FAA in each phospholipid fraction, percentage of FAA in total phospholipid (rank order) ([1]; mouse brain, FIG. 2-B, p<0.01)","FAA concentration in plasma over time ([2]; 0.3 or 1.6 nmol, FIG. 1)",plasma area under the curve ([2]; high dose (1.6 nmol)) [µM·h],plasma area under the curve ([2]; low dose (0.3 nmol)) [µM·h],"Published k* values, brain ChoGpl [3] [ml/s/g × 10^4]","Published k* values, brain EtnGpl [3] [ml/s/g × 10^4]","Published k* values, brain PtdIns [3] [ml/s/g × 10^4]","Published k* values, brain PtdSer [3] [ml/s/g × 10^4]","Published k* values, brain Total lipid [3] [ml/s/g × 10^4]"
"O=C(O)CCC/C=C\C/C=C\C/C=C\C/C=C\CCCCCF [FAA, 20-Fluoroarachidonic acid]","highest in PtdIns and ChoGpl, followed by EtnGpl and PtdSer",< 0.01,lower for the high infusion dose than the low dose,6.8 ± 2.6,2.8 ± 0.4,8.6 ± 1.3,0.4 ± 0.1,15.0 ± 2.3,"highest in ChoGlp, followed by PtdIns, EtnGlp and PtdSer",increased over time in a dose-dependent manner,0.236 ± 0.0189,0.0297 ± 0.0217,,,,,
CCCCC/C=C\C/C=C\C/C=C\C/C=C\CCCC(=O)O [[1-^14C]AA],,,,,,,,,,,,,5.9 ± 1.4,5.7 ± 1.0,6.8 ± 0.8,1.8 ± 0.5,22.6 ± 1.3

# From patent US20130302247A1, “SYNTHESIS OF FLUOROARACHIDONIC ACID AND METHODS OF USE THEREOF” (The United States of America, as represented by the …, priority 2012, published 2013)
